Data published in ChEMBL document CHEMBL1144202, “Triazole oxytocin antagonists: identification of aryl ether replacements for a biaryl substituent” (Bioorg Med Chem Lett, 2008).
Converted amounts (≈) assume the structure as drawn.

Key:
Vasopressin V2 receptor = Vasopressin V2 receptor (Homo sapiens, UniProt P30518); test: Antagonist activity at human vasopressin V2 receptor by cell based beta-lactamase reporter gene assay; type: functional
[1] = Intrinsic clearance in human liver microsomes; type: ADME, Microsome
[2] = biological target: T1, Vasopressin V1b receptor (Homo sapiens) (UniProt P47901); test: Binding affinity to human vasopressin V1b receptor at 10 uM relative to control
T1 sequence (whole entry): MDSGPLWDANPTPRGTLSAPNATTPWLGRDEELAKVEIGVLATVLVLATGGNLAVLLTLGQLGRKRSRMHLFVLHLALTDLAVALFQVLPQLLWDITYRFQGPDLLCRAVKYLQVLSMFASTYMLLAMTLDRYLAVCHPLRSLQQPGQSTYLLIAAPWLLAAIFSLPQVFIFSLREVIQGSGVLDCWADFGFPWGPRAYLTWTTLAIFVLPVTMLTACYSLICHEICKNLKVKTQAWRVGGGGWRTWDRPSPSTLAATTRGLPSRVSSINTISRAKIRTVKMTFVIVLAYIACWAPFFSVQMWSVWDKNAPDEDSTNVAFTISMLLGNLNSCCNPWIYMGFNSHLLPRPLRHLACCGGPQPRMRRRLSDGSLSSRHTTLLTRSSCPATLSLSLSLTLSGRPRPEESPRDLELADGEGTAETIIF

Oxytocin receptor = biological target: T2, Oxytocin receptor (Homo sapiens, UniProt P30559); test: Antagonist activity at human oxytocin receptor by cell based beta-lactamase reporter gene assay; type: functional
T2 sequence (P30559 whole entry): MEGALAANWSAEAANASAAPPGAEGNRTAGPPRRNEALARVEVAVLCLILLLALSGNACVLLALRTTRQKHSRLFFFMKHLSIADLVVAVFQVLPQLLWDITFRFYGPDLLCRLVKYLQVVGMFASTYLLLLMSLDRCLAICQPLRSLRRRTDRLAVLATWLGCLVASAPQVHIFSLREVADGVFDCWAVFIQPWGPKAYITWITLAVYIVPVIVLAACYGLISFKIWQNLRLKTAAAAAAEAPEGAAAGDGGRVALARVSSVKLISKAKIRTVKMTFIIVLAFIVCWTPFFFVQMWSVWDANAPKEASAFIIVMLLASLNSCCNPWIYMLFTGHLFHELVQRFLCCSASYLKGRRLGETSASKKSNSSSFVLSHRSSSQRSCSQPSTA

Vasopressin V1b receptor = biological target: T3, Vasopressin V1b receptor (Homo sapiens, UniProt P47901); test: Antagonist activity at human vasopressin V1b receptor by cell based beta-lactamase reporter gene assay; type: functional
T3 sequence (P47901 whole entry): T1 sequence (whole entry)

Vasopressin V1a receptor = Vasopressin V1a receptor (Homo sapiens, UniProt P37288); test: Antagonist activity at human vasopressin V1a receptor by cell based beta-lactamase reporter gene assay; type: functional
[3] = Aqueous solubility at pH 7.4; type: physicochemical

Vasopressin V2 receptor, sequence (P30518 whole entry): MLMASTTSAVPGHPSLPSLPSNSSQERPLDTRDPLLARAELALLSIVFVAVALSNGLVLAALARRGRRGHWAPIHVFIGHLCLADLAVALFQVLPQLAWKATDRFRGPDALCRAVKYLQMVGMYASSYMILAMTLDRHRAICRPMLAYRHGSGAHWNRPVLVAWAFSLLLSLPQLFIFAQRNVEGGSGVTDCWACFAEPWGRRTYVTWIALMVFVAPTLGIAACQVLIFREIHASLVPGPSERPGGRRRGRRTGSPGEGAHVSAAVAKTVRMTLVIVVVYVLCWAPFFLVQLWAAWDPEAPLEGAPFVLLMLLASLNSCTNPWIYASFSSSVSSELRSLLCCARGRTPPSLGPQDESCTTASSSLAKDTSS
Vasopressin V1a receptor, sequence (P37288 whole entry): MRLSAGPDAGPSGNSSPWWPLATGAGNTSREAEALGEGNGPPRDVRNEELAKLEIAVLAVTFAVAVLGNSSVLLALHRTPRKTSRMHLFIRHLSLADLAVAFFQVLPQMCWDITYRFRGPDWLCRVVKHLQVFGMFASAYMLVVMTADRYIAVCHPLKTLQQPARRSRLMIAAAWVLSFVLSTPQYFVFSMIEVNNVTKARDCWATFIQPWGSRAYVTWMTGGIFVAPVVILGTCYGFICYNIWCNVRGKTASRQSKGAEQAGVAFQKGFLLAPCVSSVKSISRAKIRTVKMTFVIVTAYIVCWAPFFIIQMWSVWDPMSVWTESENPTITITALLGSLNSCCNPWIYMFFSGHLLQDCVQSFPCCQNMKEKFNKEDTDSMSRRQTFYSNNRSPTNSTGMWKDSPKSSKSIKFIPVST

| Compound | Ki (Vasopressin V2 receptor) [nM] | microsomal CLint [1] [µL/min/mg] | Activity [2] [%] | Ki (Oxytocin receptor) [nM] | Ki (Vasopressin V1b receptor) [nM] | Ki (Vasopressin V1a receptor) [nM] | solubility [3] [µg/mL] |
| --- | --- | --- | --- | --- | --- | --- | --- |
| CCOCc1nnc(-c2ccc(OCC)c(C)c2)n1-c1ccc(OC)nc1 | > 10000 | 12 | < 20 | 28 | > 10000 | 594 | 344 (≈ 934 µM) |
| CCOc1ccc(-c2nnc(COC)n2-c2ccc(OC)nc2)cc1Cl | > 10000 | – | < 20 | 144 | – | 2900 | – |
| COCc1nnc(-c2cnc(-c3ccc(C#N)cc3C)cn2)n1-c1ccc(OC)nc1 | – | – | < 20 | – | – | – | – |
| CCOc1ccc(-c2nnc(COCCOC)n2-c2ccc(OC)nc2)cc1C | 6400 | – | < 20 | 19 | – | 1700 | – |
| COc1ccc(-n2c(C)nnc2-c2cnc(-c3ccc(F)cc3C)cn2)cn1 | – | – | < 20 | – | – | – | – |
| CCOc1ccc(-c2nnc(Cn3nccn3)n2-c2ccc(OC)nc2)cc1C | 1000 | – | < 20 | 45 | – | 214 | – |
| CCOc1ccc(-c2nnc(C)n2-c2ccc(OC)nc2)cc1C | > 10000 | – | < 20 | 143 | – | > 10000 | – |
| CCOc1ccc(-c2nnc(COC)n2-c2ccc(OC)nc2)cc1C | > 10000 | – | < 20 | 102 | – | 3800 | 170 (≈ 480 µM) |
| CCOc1ccc(-c2nnc(COC)n2-c2ccc(OC)nc2)cc1C(F)(F)F | > 10000 | – | < 20 | 190 | – | > 10000 | – |
| CCOc1ccc(S(=O)(=O)N(CC(=O)N/N=C2\C(=O)Nc3ccccc32)c2ccccc2)cc1 | – | – | < 20 | 6 | – | – | – |
